Experimental data: ChEMBL document CHEMBL1148579, “Influence of various central moieties on the hypolipidemic properties of long hydrocarbon chain diols and diacids” (J Med Chem, 2006); call rule not given here

How the values were obtained:
Rattus norvegicus [1] = assay: Activity against high density lipoprotein cholesterol level in obese female Zucker rat serum after 1 week at 100 mg/kg (percent change from pre-treatment); type: functional
Hepatocyte = assay: Inhibition of lipid synthesis in primary rat hepatocytes by incorporation radiolabeled acetate into cellular lipids; type: functional, cell-based, Sprague-Dawley
Rattus norvegicus [2] = assay: Activity against non high density lipoprotein cholesterol level in obese female Zucker rat serum after 1 week at 100 mg/kg (percent change from pre-treatment); type: functional
Rattus norvegicus [3] = assay: Activity against non high density lipoprotein cholesterol level in obese female Zucker rat serum after 2 weeks at 100 mg/kg (percent change from pre-treatment); type: functional
Rattus norvegicus [4] = assay: Activity against high density lipoprotein cholesterol level in obese female Zucker rat serum after 2 weeks at 100 mg/kg (percent change from pre-treatment); type: functional
Rattus norvegicus [5] = assay: Activity against triglyceride level in obese female Zucker rat serum after 1 week at 100 mg/kg (percent change from pre-treatment); type: functional
Rattus norvegicus [6] = assay: Activity against triglyceride level in obese female Zucker rat serum after 2 weeks at 100 mg/kg (percent change from pre-treatment); type: functional
Rattus norvegicus [7] = assay: Activity against non high density lipoprotein cholesterol level in obese female Zucker rat serum after 1 week at 30 mg/kg (percent change from pre-treatment); type: functional
Rattus norvegicus [8] = assay: Activity against non high density lipoprotein cholesterol level in obese female Zucker rat serum after 2 weeks at 30 mg/kg (percent change from pre-treatment); type: functional
Rattus norvegicus [9] = assay: Activity against high density lipoprotein cholesterol level in obese female Zucker rat serum after 1 week at 30 mg/kg (percent change from pre-treatment); type: functional
Rattus norvegicus [10] = assay: Activity against high density lipoprotein cholesterol level in obese female Zucker rat serum after 2 weeks at 30 mg/kg (percent change from pre-treatment); type: functional
Rattus norvegicus [11] = assay: Activity against triglyceride level in obese female Zucker rat serum after 1 week at 30 mg/kg (percent change from pre-treatment); type: functional
Rattus norvegicus [12] = assay: Activity against triglyceride level in obese female Zucker rat serum after 2 weeks at 30 mg/kg (percent change from pre-treatment); type: functional
[13] = Rattus norvegicus, Sprague-Dawley, Hepatocyte, read-out: IC50

Row | Structure (SMILES) | Activity (Rattus norvegicus [1]) [%] | IC50 (Hepatocyte; [13]) [µM] | Activity (Rattus norvegicus [2]) [%] | Activity (Rattus norvegicus [3]) [%] | Activity (Rattus norvegicus [4]) [%] | Activity (Rattus norvegicus [5]) [%] | Activity (Rattus norvegicus [6]) [%] | Activity (Rattus norvegicus [7]) [%] | Activity (Rattus norvegicus [8]) [%] | Activity (Rattus norvegicus [9]) [%] | Activity (Rattus norvegicus [10]) [%] | Activity (Rattus norvegicus [11]) [%] | Activity (Rattus norvegicus [12]) [%] | IC50 (Hepatocyte; hepatocyte)
1 | CC(C)(CO)CCCCS(=O)(=O)CCCCC(C)(C)CO | 15 | 8.9 | -46 | -34 | -13 | -34 | -19 |  |  |  |  |  |  | 
2 | CC(C)(CO)CCCCNC(=O)NCCCCC(C)(C)CO | 66 | 3.4 | -33 | -5 | 92 | -42 | -31 |  |  |  |  |  |  | 
3 | CC(C)(CCCCCC(=O)CCCCCC(C)(C)C(=O)O)C(=O)O | 72 |  | -98 | -99 | 168 | -93 | -94 |  |  |  |  |  |  | 
4 | CC(CCCCSCCCCC(C)(C(=O)O)c1ccccc1)(C(=O)O)c1ccccc1 (stereo unspecified) |  | 26 |  |  |  |  |  |  |  |  |  |  |  | 
5 | CC(=O)C(CCCCC(C)(C)CO)CCCCC(C)(C)CO |  | 46 |  |  |  |  |  | 15 | 52 | -14 | -19 | -6 | 22 | 
6 | CC(CO)(CCCSCCCC(C)(CO)c1ccccc1)c1ccccc1 (stereo unspecified) | 9 | 41 | -26 | 8 | 2 | -18 | 1 |  |  |  |  |  |  | 
7 | CC(C)(CO)CCCC[S+]([O-])CCCCC(C)(C)CO | 127 |  | 56 | 64 | 233 | -37 | -35 |  |  |  |  |  |  | Not Active
8 | CC(C)(CO)CCC[S+]([O-])CCCC(C)(C)CO | 54 |  | 40 | 12 | 93 | -36 | -5 |  |  |  |  |  |  | Not Active
9 | CC(C)(CO)CCCCNC(=O)CCCCC(C)(C)CO |  |  |  |  |  |  |  | -21 | -7 | 2 | 20 | -20 | -10 | Not Active
10 | CC(C)(CO)CCCSCCCC(C)(C)CO |  | 15 |  |  |  |  |  | -40 | -14 | 54 | 40 | -51 | -34 | 
11 | CC(CO)(CCCC[S+]([O-])CCCCC(C)(CO)c1ccccc1)c1ccccc1 (stereo unspecified) |  | 81 |  |  |  |  |  |  |  |  |  |  |  | 
12 | CC(C)(CO)CCCCN(O)CCCCC(C)(C)CO |  | 63 |  |  |  |  |  | -40 | -5 | 27 | 19 | -26 | 13 | 
13 | CC(C)(CO)CCCCOC(=O)CCCCC(C)(C)CO | 18 | 13 | -25 | -5 | 23 | -20 | 7 |  |  |  |  |  |  | 
14 | CC(C)(CO)CCCCNC(=O)OCCCCC(C)(C)CO | 60 | 0.8 | 10 | 84 | 65 | -52 | -4 |  |  |  |  |  |  | 
15 | CC(C)(CO)CCCCC(CO)CCCCC(C)(C)CO | 2 | 15 | -43 | -12 | -2 | -52 | -23 |  |  |  |  |  |  | 
16 | CC(C)(CO)CCCCC(O)CCCCC(C)(C)CO | 219 | 6.4 | -61 | -15 | 222 | -70 | -46 |  |  |  |  |  |  | 
17 | CC(C)(CO)CCCCCCCCCC(C)(C)CO | 189 |  | -67 | -75 | 137 | -83 | -82 |  |  |  |  |  |  | 
18 | CC(CO)(CCCCSCCCCC(C)(CO)c1ccccc1)c1ccccc1 (stereo unspecified) |  | 64 |  |  |  |  |  |  |  |  |  |  |  | 
